Data as given in publication PMC6832932, “Design and Selection of Novel C1s Inhibitors by In Silico and In Vitro Approaches” (Molecules, 2019).
Read-outs that look alike come from different tables or passages of the source.

Assays:
[1] = target: T1, C1s (Homo sapiens, UniProt P09871); conditions: ref PubChem; read-out: IC50 C1s; cited from earlier work
T1 construct: Recombinant C1s and C1r fragments (CCP1-CCP2-SP, the γB catalytic region); made in house
T1 sequence (P09871 438-688 limits assumed): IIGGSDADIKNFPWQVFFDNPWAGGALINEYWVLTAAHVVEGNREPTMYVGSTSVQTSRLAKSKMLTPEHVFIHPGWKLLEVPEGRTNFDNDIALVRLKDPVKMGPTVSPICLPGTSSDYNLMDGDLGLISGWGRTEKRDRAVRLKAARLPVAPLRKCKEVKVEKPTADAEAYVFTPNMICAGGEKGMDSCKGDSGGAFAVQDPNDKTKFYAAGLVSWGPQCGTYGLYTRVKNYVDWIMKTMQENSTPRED

[2] = target: T1, C1s; conditions: ref Subasinghe et al, 2004 [5]; read-out: Ki (C1s, thiopheneamidine inhibitors); cited from earlier work
[3] = target: T1, C1s; test: C1s inhibition IC50 assay (thioester substrate Z-Lys-SBzl with DTNB, photometric); assay type: biochemical; conditions: read-out: IC50 C1s
From the text: Recombinant C1s and C1r fragments (CCP1-CCP2-SP, the γB catalytic region) containing the serine protease domain were expressed in E. Coli BL21(DE3)pLysS host strain (transformed with pET-17b vector) in form of inclusion bodies; proteins were isolated, renatured and purified as published earlier. Recombinant C1s, isolated in intact proenzyme form, was activated by limited proteolysis using the recombinant, autoactivated C1r fragment. Activated C1s and C1r were separated using Q Sepharose HP (Amersham Biosciences, Little Chalfont, UK) anion exchange chromatography.
40 µL enzyme + 10 µL inhibitor compounds were incubated (10 min, RT), and 50 µL substrate solution (1 mM final concentration) was added; incubated for 45 min and finally absorbance was read (405 nm) with a Perkin Elmer Wallac 1420 Victor2 microplate reader.

[4] = target: T2, Human isolated Factor Xa (Homo sapiens, UniProt P00742); test: Factor Xa activity assay (fluorescent substrate Boc-Leu-Gly-Arg-AMC); assay type: biochemical; conditions: for remaining activity at 10 µM: 10 µM compound
T2 construct: purchased ThermoFisher Scientific (Waltham, MA, USA)
T2 sequence (P00742 235-488 limits assumed): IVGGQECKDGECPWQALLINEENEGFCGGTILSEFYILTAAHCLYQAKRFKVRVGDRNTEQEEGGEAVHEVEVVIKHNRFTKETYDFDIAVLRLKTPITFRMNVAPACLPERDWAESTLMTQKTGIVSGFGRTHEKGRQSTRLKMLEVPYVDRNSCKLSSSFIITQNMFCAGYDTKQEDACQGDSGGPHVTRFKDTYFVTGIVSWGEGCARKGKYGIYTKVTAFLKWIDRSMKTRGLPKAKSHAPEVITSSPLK
T2 sequence (P00742 41-179 partner limits assumed): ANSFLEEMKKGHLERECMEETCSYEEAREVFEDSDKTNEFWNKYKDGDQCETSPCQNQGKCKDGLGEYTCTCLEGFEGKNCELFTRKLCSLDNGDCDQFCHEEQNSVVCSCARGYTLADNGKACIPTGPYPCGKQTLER
Experimental: Human isolated Factor Xa protein was purchased from ThermoFisher Scientific (Waltham, MA, USA). An end-point assay was carried out using the fluorescent amide substrate Boc-Leu-Gly-Arg-AMC used for C1s 10 µM screen; assay conditions: 20 mM HEPES (pH 7,8) 100 mM NaCl, 10 mM CaCl2 30 °C, 0.05% TWEEN-20, 1% DMSO; low enzyme concentration (about 1 nM); in a 96 well microplate format (in 100 µL), using non-binding black plates (Greiner).

[5] = 1 mM Z-Lys-SBzl, enzyme below 1 nM
[6] = 1 mM Z-Lys-SBzl, text and Figure S1
[7] = 1 mM ZLysSBzl, Figure S1 curves

Row | Compound | Ki [2] [nM] | IC50 [3, 5] [nM] | remaining activity at 10 µM [4] [%] | also measured
1 | O=C(c1ccc2c(c1)OCO2)C1C2C(=O)N(c3ccc4c(c3)OCCO4)C(=O)C2C2c3ccccc3C=CN12 (centres unmarked) [4,257,399] | – | – | – | IC50 [1]: 880 nM
2 | COc1ccc(-c2csc(-c3cc(C(=N)N)sc3SC)n2)cc1 [CHEMBL28618] | 900 | – | – | –
3 | CSc1sc(C(=N)N)cc1-c1nc(-c2cnccc2Cl)cs1 [CHEMBL28723] | 870 | – | – | –
4 | CSc1sc(C(=N)N)cc1-c1nc(-c2csc3ccccc23)cs1 [CHEMBL28875] | 450 | – | – | –
5 | CSc1sc(C(=N)N)cc1-c1nc(-c2ccccc2C)cs1 [CHEMBL28949] | 850 | – | – | –
6 | CSc1sc(C(=N)N)cc1-c1nc(-c2ccc([N+](=O)[O-])cc2)cs1 [CHEMBL29006] | 1000 | – | – | –
7 | COc1cccc(-c2csc(-c3cc(C(=N)N)sc3SC)n2)c1 [CHEMBL29205] | 470 | – | – | –
8 | CSc1sc(C(=N)N)cc1-c1nc(Cc2ccccc2)cs1 [CHEMBL29269] | 1060 | – | – | –
9 | CSc1sc(C(=N)N)cc1-c1nc(-c2ccc3ccccc3c2)cs1 [CHEMBL29290] | 490 | – | – | –
10 | CSc1sc(C(=N)N)cc1-c1nc(-c2ccc(C)cc2)cs1 [CHEMBL29304] | 420 | – | – | –
11 | CSc1sc(C(=N)N)cc1-c1nc(-c2cccs2)cs1 [CHEMBL31549] | 700 | – | – | –
12 | CSc1sc(C(=N)N)cc1-c1nc(-c2cnn(-c3ccccc3)c2OCCC(C)C)cs1 [CHEMBL101698] | 1500 | – | – | –
13 | CSc1sc(C(=N)N)cc1-c1nc(-c2cnn(C)c2)cs1 [CHEMBL102417] | 460 | – | – | –
14 | CSc1sc(C(=N)N)cc1-c1nc(-c2cnn(-c3ccccc3)c2OCC2CCC2)cs1 [CHEMBL102835] | 530 | – | – | –
15 | N=C(N)c1cc(-c2nc(-c3ccccc3)cs2)c(C(F)(F)F)s1 [CHEMBL103840] | 12500 | – | – | –
16 | N=C(N)c1cc(-c2nc(-c3ccccc3)cs2)c(SCc2ccccc2)s1 [CHEMBL104368] | > 20000 | – | – | –
17 | CCSc1sc(C(=N)N)cc1-c1nc(-c2ccccc2)cs1 [CHEMBL105102] | > 20000 | – | – | –
18 | CS(=O)(=O)c1sc(C(=N)N)cc1-c1nc(-c2ccccc2)cs1 [CHEMBL105652] | > 28000 | – | – | –
19 | Cc1sc(C(=N)N)cc1-c1nc(-c2ccccc2)cs1 [CHEMBL106071] | 6000 | – | – | –
20 | CCCc1nn(C)cc1-c1csc(-c2cc(C(=N)N)sc2SC)n1 [CHEMBL106388] | 190 | – | – | –
21 | CSc1sc(C(=N)N)cc1-c1nc(-c2ccccc2)cs1 [CHEMBL281899] | 560 | – | – | –

Row | Compound | Ki [2] [nM] | IC50 [3, 5] [nM] | remaining activity at 10 µM [4] [%] | also measured
22 | COc1ccccc1-c1csc(-c2cc(C(=N)N)sc2SC)n1 [CHEMBL283080] | 850 | – | – | –
23 | CSc1sc(C(=N)N)cc1-c1nc(C2CCCCC2)cs1 [CHEMBL283859] | 4700 | – | – | –
24 | CSc1sc(C(=N)N)cc1-c1nc(-c2ccc(Cl)cc2Cl)cs1 [CHEMBL285142] | 3000 | – | – | –
25 | CSc1sc(C(=N)N)cc1-c1nc(-c2cccnc2Cl)cs1 [CHEMBL285818] | 1020 | – | – | –
26 | CSc1sc(C(=N)N)cc1-c1nc(-c2ccc(Cl)cc2)cs1 [CHEMBL286243] | 436 | – | – | –
27 | COc1ccc(-c2csc(-c3cc(C(=N)N)sc3SC)n2)c(OC)c1 [CHEMBL286267] | 640 | – | – | –
28 | CSc1sc(C(=N)N)cc1-c1nc(-c2cccc(C)c2)cs1 [CHEMBL286498] | 960 | – | – | –
29 | CSc1sc(C(=N)N)cc1-c1nc(COc2ccccc2)cs1 [CHEMBL287292] | 520 | – | – | –
30 | CCCOc1c(-c2csc(-c3cc(C(=N)N)sc3SC)n2)cnn1-c1ccccn1 [CHEMBL317917] | 70 | – | – | –
31 | CCCc1c(-c2csc(-c3cc(C(=N)N)sc3SC)n2)cnn1C [CHEMBL318576] | 330 | – | – | –
32 | CCOc1c(-c2csc(-c3cc(C(=N)N)sc3SC)n2)cnn1-c1ccccc1 [CHEMBL321341] | 90 | – | – | –
33 | N=C(N)c1cc(-c2nc(-c3ccccc3)cs2)cs1 [CHEMBL321519] | > 20000 | – | – | –
34 | COc1sc(C(=N)N)cc1-c1nc(-c2ccccc2)cs1 [CHEMBL322207] | 14400 | – | – | –
35 | CSc1sc(C(=N)N)cc1-c1ncc(-c2ccccc2)s1 [CHEMBL322672] | 3250 | – | – | –
36 | CSc1sc(C(=N)N)cc1-c1nc(-c2cnn(-c3ccccc3)c2)cs1 [CHEMBL322834] | 150 | – | – | –
37 | CSc1sc(C(=N)N)cc1-c1nc(-c2ccc(Cl)c([N+](=O)[O-])c2)cs1 [CHEMBL413764] | 860 | – | – | –
38 | CSc1sc(C(=N)N)cc1-c1nc(-c2ccc(-c3ccccc3)cc2)cs1 [CHEMBL418023] | 15400 | – | – | –
39 | CCc1sc(C(=N)N)cc1-c1nc(-c2ccccc2)cs1 [CHEMBL441273] | 3000 | – | – | –
40 | CCOc1ccc(C(=O)n2nnc3ccccc32)cc1 [Entry 1] | – | 83 | 30.3 | IC50 [3, 6]: 83.3 nM
41 | CC(=O)Nc1ccc(C(=O)n2nnc3ccccc32)cc1 [Entry 2] | – | 91 | 43.1 | IC50 [3, 6]: 90.8 nM
42 | COc1cc(SC)ccc1C(=O)n1nnc2ccccc21 [Entry 3] | – | 240 | 4.93 | –

Row | Compound | Ki [2] [nM] | IC50 [3, 5] [nM] | remaining activity at 10 µM [4] [%] | also measured
43 | CC(C)(C)c1ccc(C(=O)n2nnc3ccccc32)cc1 [Entry 4] | – | 1300 | 86.2 | –
44 | COc1ccc(C(=O)n2nnc3ccccc32)cc1OC [Entry 5] | – | 1850 | 48.3 | –
45 | O=C(c1ccc(F)c(F)c1)n1nnc2ccccc21 [Entry 6] | – | 2160 | 92.3 | –
46 | O=C(c1ccc(-c2ccccc2)cc1)n1nnc2ccccc21 [Entry 7] | – | 3870 | 92.1 | –
47 | CCN(CC)c1ccc(C(=O)n2nnc3ccccc32)cc1 [Entry 8] | – | 5900 | 76.5 | –
48 | COc1ccccc1C(=O)n1nc(-c2ccco2)nc1SC [Entry 9] | – | 12 | 2.39 | IC50 [3, 6]: 11.6 nM; IC50 ([4]; 500 µM Boc-Leu-Gly-Arg-AMC): 1250 nM
49 | CSc1nc(-c2ccco2)nn1C(=O)c1ccc(F)cc1 [Entry 10] | – | 44 | 78.1 | IC50 [3, 6]: 43.6 nM
50 | CSc1nc(-c2ccco2)nn1C(=O)c1ccccc1 [Entry 11] | – | 94 | 26 | IC50 [3, 6]: 93.6 nM
51 | CCOC(=O)CSc1nc(-c2cccnc2)nn1C(=O)c1ccccc1 [Entry 12] | – | 2400 | 85.4 | –
52 | O=c1oc(-c2ccco2)nc2cc(Cl)ccc12 [Entry 13] | – | 474 | 98.6 | –
53 | COc1cc2nc(-c3ccco3)oc(=O)c2cc1OC [Entry 14] | – | 6440 | 61.4 | –
54 | O=c1oc(-c2ccco2)nc2ccc(Cl)cc12 [Entry 15] | – | 6700 | 82 | IC50 [3, 7]: 6680 nM
55 | CC(=O)Oc1ccc2nc(-c3ccco3)oc(=O)c2c1 [Entry 16] | – | 29000 | 77.6 | –
56 | Cc1cc2c(=O)oc(-c3ccccc3Br)nc2s1 [Entry 18] | – | 845 | 46.1 | IC50 [3, 7]: 846 nM
57 | Cc1sc2nc(-c3ccccc3)oc(=O)c2c1C [Entry 19] | – | ~20000 | – | –
58 | Cc1ccc(-c2nc3sc(C)c(C)c3c(=O)o2)cc1 [Entry 20] | – | ~50000 | – | –
59 | O=c1nc(-c2cccs2)oc2cc(Cl)ccc12 [Entry 21] | – | 241 | 53.6 | IC50 [3, 7]: 240 nM
60 | O=c1nc(-c2ccco2)oc2ccc(Cl)cc12 [Entry 22] | – | 3600 | 0.14 | –
61 | Cc1cccc2c(=O)nc(-c3ccco3)oc12 [Entry 23] | – | 41000 | – | –
